In paper PMC10321576, “Cyclic peptides target the aromatic cage of a PHD-finger reader domain to modulate epigenetic protein function” (Chemical Science, 2023):
Where two headings read alike, the source gives them in different places. Each block holds one molecule with its values, some of them ahead of it. Ends that are not written are not given here. Peptide text beside a SMILES is read from it.

Legend:
[1] = target: T1, KDM7B PHD (Homo sapiens, UniProt Q9UPP1); experiment: BLI binding; parameters: key to BLI Screening, KDM7B PHD: (+) = binding; (-) = no binding; (NS) = non-specific; conditions: for BLI Screening, KDM7B PHD: qualitative assessment of binding by BLI
T1 construct: KDM7B 1-66; made in house
T1 sequence (Q9UPP1 1-66 isoform Q9UPP1-2): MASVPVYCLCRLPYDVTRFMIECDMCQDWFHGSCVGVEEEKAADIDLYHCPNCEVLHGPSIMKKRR
Description: (§1) Figure S2. BLI for KDM7 proteins with cyclic peptides.
(§2) BLI traces for b inding to KDM7 protein domains immobilised by C-terminal His -tag on Ni -NTA
(§3) biosensors, against cyclic peptides. Response trace for each peptide concentration is represented by
(§4) a different colour, with the fitted curves overlaid in black.
(§5) concentration plotted, with 2-fold dilutions thereafter. Dual domain = PHD+JmjC. […]
(§6) against KDM7 and other protein domains. t1/2 = half life (0.693 / Koff)
(§7) (1 picture or pasted object on this page, not shown here)

[2] = target: T2, KDM7B Dual (PHD+JmjC) (Homo sapiens, UniProt Q9UPP1); experiment: BLI binding; parameters: key to BLI Screening, KDM7B Dual: (+) = binding; (-) = no binding; (NS) = non-specific; conditions: for BLI Screening, KDM7B Dual: qualitative assessment of binding by BLI; for koff / kon / Kd: 1:1 binding model; for Kd: His-tagged protein on Ni-NTA biosensors
T2 construct: Dual domain = PHD+JmjC; made in house
Description: as §1, §2, §3, §4, §5, §6, §7

[3] = target: T3, KDM7B JmjC (Homo sapiens, UniProt Q9UPP1); experiment: BLI binding; parameters: key to BLI Screening, KDM7B JmjC: (+) = binding; (-) = no binding; (NS) = non-specific; conditions: for BLI Screening, KDM7B JmjC: qualitative assessment of binding by BLI; for Kd: read-out: BLI pKD, KDM7B JmjC (converted)
T3 construct: made in house
Description: as §1, §2, §3, §4, §5, §6, §7

[4] = target: T1, KDM7B PHD; experiment: AlphaScreen displacement of H3 1-21K4me3-Bt; assay type: binding; conditions: for reduced potency relative to OC9: affinity (BLI) and displacement (AS) assays, KDM7B PHD-finger
Description: The functional effect of OC9 on the PHD-finger was further assessed using an AlphaScreen (AS) based proximity assay. […]

[5] = target: KDM7A dual domain (Homo sapiens, UniProt Q6ZMT4); experiment: MALDI-TOF-MS KDM7 activity assay (H3 peptide demethylation); assay type: biochemical
Description: Fig. 5 KDM7 PHD-finger inhibition by OC9 modulates dual domain JmjC activity. (a) (i–iii) OC9 inhibits demethylation of H3K9me2, with or without K4me3, by KDM7B (0.4 μM) on H3 peptide (2.5 μM). […] (b) (i–iii) OC9 enhances demethylation of H3K4me3K9me2 by KDM7A (0.55 μM) on H3 peptide (2.5 μM), and (iv) enhances KDM7A (0.5 μM) demethylation of calf histone extracts (50 μg). […] Inset MALDI-TOF-MS overlays are from respective highest OC9 concentration points compared to DMSO alone. KDM7 PHD-finger only proteins had no demethylase activity (Fig. S40 ^†). Calf histone H3K9me2 was quantitated relative to H4 band intensities at each time point, normalised to DMSO at t = 0. Full Western blots available in Fig. S42. ^† Relative rates (Krel min^−1) from a one-phase decay model, average from N = 3 independent experiments. […] The enzyme heading of the panel (KDM7B / KDM7A) was put in front of them. / DMSO is the vehicle control. Its printed rates (0.30 min^-1 in a, 0.04 min^-1 in b) are included because they are printed with its name.
In contrast to KDM7B, KDM7A lacks activity against H3K4me3K9me2, but demethylates H3_1–21K9me2.[57] OC9, however, restored the activity of KDM7A against H3_1–21K4me3K9me2 from <5% to a level (∼30%) that approached demethylation on H3_1–21K9me2 with DMSO alone (∼40%) (Fig. 5b and S39 ^†). […]

[6] = target: T4, KDM7B Dual (Homo sapiens, UniProt Q9UPP1); experiment: ITC binding
T4 construct: Dual = PHD+JmjC; made in house
Description: Figure S10. ITC results: Tabulated values from 1:1 binding model and conditions
ITC buffer = 50 mM HEPES, 100 mM NaCl, pH 7.4, 0.2 µm filtered), at 25 °C. Dual = PHD+JmjC. HisTrx
= His 6+thioredoxin tag, GST = glutathione S -transferase tag, ZB = Z -basic tag. Syringe contained
peptide solution in buffer. Cell contained protein solution in buffer.
as §7

[7] = target: T5, KDM7B dual domain (Homo sapiens, UniProt Q9UPP1); experiment: HDX-MS; assay type: binding; conditions: relative to DMSO
T5 construct: dual domain (PHD-JmjC) of KDM7B; His-tag (C); made in house
Description: To further evaluate the interactions of OC9 with KDM7B we used hydrogen–deuterium exchange mass spectrometry (HDX-MS), which informs on protein dynamics by following deuterium incorporation into the protein amide backbone (Fig. 2).
The residue level view was generated by averaging mass changes across overlapping peptide fragments. Supporting data available in ESI. ^† K4me3 binding aromatic cage residues (‘YYMW’ Fig. 1a) are indicated by red asterix.

[8] = His-tagged protein on Ni-NTA biosensors, 1:1 binding model, read-out: BLI KD, KDM7B PHD

T2 sequence (Q9UPP1 37-483 limits assumed): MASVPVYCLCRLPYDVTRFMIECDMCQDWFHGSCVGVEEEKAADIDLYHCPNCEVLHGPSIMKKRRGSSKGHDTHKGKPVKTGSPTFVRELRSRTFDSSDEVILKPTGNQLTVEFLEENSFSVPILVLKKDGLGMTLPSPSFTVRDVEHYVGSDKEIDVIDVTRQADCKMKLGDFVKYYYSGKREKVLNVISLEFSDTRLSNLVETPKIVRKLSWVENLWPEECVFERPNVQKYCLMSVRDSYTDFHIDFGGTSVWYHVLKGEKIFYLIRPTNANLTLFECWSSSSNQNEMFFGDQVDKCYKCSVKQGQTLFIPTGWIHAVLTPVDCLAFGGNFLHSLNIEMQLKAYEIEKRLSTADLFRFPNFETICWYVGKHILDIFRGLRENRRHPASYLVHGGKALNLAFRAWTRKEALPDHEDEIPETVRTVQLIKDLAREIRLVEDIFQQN
T4 sequence (Q9UPP1 37-483 limits assumed): as above
T3 sequence (Q9UPP1 231-387 limits assumed): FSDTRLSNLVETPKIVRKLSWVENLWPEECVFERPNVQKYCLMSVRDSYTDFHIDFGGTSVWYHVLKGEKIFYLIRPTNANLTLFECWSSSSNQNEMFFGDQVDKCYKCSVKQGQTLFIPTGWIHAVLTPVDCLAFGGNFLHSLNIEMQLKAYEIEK
Sequence of KDM7A dual domain (Q6ZMT4 38-480 limits assumed): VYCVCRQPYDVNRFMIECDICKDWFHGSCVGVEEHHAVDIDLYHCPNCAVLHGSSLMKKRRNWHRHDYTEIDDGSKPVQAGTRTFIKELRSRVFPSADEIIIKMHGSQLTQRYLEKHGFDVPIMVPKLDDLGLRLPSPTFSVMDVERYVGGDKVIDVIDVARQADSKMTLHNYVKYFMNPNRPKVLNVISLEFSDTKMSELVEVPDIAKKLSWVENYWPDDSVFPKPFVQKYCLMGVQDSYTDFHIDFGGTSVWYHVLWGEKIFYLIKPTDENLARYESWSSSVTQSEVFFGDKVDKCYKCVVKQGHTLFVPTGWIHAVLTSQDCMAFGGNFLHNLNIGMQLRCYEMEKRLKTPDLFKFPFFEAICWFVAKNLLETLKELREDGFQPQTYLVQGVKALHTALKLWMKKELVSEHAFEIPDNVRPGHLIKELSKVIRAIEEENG
T5 sequence (Q9UPP1 37-483 limits assumed): as the sequence (Q9UPP1 37-483 limits assumed) above

BLI Screening, KDM7B PHD [1]: NS
BLI Screening, KDM7B Dual [2]: NS
BLI Screening, KDM7B JmjC [3]: NS
Molecule: YLVRIYPNKLIWWC (also: sidechain bridge or staple (positions not given here)) [OC6, enriched cyclic peptide, non-specific in BLI]

BLI Screening, KDM7B Dual [2]: -
Molecule: YIVPSPIWYHWVAC (also: sidechain bridge or staple (positions not given here)) [OC10]

faster off-rate by BLI (vs OC9) [1]: ~100 ×
reduced potency relative to OC9 [4]: much weaker
Molecule: CC(C)C[C@@H]1NC(=O)[C@H](Cc2ccc(O)cc2)NC(=O)[C@H](Cc2ccc(O)cc2)NC(=O)CSC[C@@H](C(N)=O)NC(=O)[C@H]([C@@H](C)O)NC(=O)[C@H](C)NC(=O)[C@H](Cc2ccccc2)NC(=O)[C@H](C(C)C)NC(=O)[C@H](CO)NC(=O)[C@@H]2CCCN2C(=O)[C@H](Cc2ccc(O)cc2)NC(=O)[C@@H]2CCCN2C(=O)[C@H](Cc2c[nH]cn2)NC(=O)[C@H]([C@@H](C)O)NC1=O [R12A] (HELM PEPTIDE1{[O=C(C[*:3])[*:2]].Y.Y.L.T.H.P.Y.P.S.V.F.A.T.C.[am]}$PEPTIDE1,PEPTIDE1,1:R3-15:R3$$$V2.0; C-terminus assumed)

Kd [1, 8]: > 1000 nM
BLI Screening, KDM7B PHD [1]: -
koff [2]: 0.0124 ± 0.0001 s⁻¹
kon [2]: 212000 ± 2000 M⁻¹ s⁻¹
Kd [2]: 58.6 nM
BLI Screening, KDM7B Dual [2]: +
koff ([3]; 1:1 binding model): 0.0245 ± 0.0001 s⁻¹
kon ([3]; 1:1 binding model): 249000 ± 3000 M⁻¹ s⁻¹
Kd ([3]; 1:1 binding model): 100 nM
BLI Screening, KDM7B JmjC [3]: +
Molecule: CC[C@H](C)[C@@H]1NC(=O)[C@H](Cc2c[nH]c3ccccc23)NC(=O)[C@H](CO)NC(=O)[C@H](CC(C)C)NC(=O)[C@H](Cc2ccc(O)cc2)NC(=O)[C@H](Cc2ccc(O)cc2)NC(=O)[C@H]([C@@H](C)O)NC(=O)CNC(=O)[C@H](Cc2ccc(O)cc2)NC(=O)[C@H](C(C)C)NC(=O)[C@H](Cc2ccc(O)cc2)NC(=O)CSC[C@@H](C(N)=O)NC(=O)[C@@H]2CCCN2C1=O [OC4] (HELM PEPTIDE1{[O=C(C[*:3])[*:2]].Y.V.Y.G.T.Y.Y.L.S.W.I.P.C.[am]}$PEPTIDE1,PEPTIDE1,1:R3-14:R3$$$V2.0)

reduced potency relative to OC9 [4]: much weaker
Molecule: CC(C)C[C@@H]1NC(=O)[C@H](Cc2ccc(O)cc2)NC(=O)[C@H](Cc2ccc(O)cc2)NC(=O)CSC[C@@H](C(N)=O)NC(=O)[C@H]([C@@H](C)O)NC(=O)[C@H](CCCNC(=N)N)NC(=O)[C@H](Cc2ccccc2)NC(=O)[C@H](C(C)C)NC(=O)[C@H](C)NC(=O)[C@@H]2CCCN2C(=O)[C@H](Cc2ccc(O)cc2)NC(=O)[C@@H]2CCCN2C(=O)[C@H](Cc2c[nH]cn2)NC(=O)[C@H]([C@@H](C)O)NC1=O [S9A] (HELM PEPTIDE1{[O=C(C[*:3])[*:2]].Y.Y.L.T.H.P.Y.P.A.V.F.R.T.C.[am]}$PEPTIDE1,PEPTIDE1,1:R3-15:R3$$$V2.0; C-terminus assumed)

reduction in KD in BLI compared to OC9 [1]: > 80 fold
reduction in t1/2 in BLI compared to OC9 [1]: > 75 fold
reduction in IC50^AS compared to OC9 [4]: 10 fold
Molecule: CC(C)C[C@@H]1NC(=O)[C@H](CO)NC(=O)[C@@H]2CCCN2C(=O)[C@H](Cc2ccc(O)cc2)NC(=O)[C@@H]2CCCN2C(=O)[C@H](Cc2c[nH]cn2)NC(=O)[C@H]([C@@H](C)O)NC(=O)[C@H](CC(C)C)NC(=O)[C@H](Cc2ccc(O)cc2)NC(=O)[C@H](Cc2ccc(O)cc2)NC(=O)CSC[C@@H](C(N)=O)NC(=O)[C@H]([C@@H](C)O)NC(=O)[C@H](CCCNC(=N)N)NC(=O)[C@H](Cc2ccccc2)NC1=O [V10L] (HELM PEPTIDE1{[O=C(C[*:3])[*:2]].Y.Y.L.T.H.P.Y.P.S.L.F.R.T.C.[am]}$PEPTIDE1,PEPTIDE1,1:R3-15:R3$$$V2.0; C-terminus assumed)

Molecule: CN(C)NC(=O)CCC(=O)O [DAM, daminozide, reference compound]
IC50 [5]: 251 nM

BLI Screening, KDM7B Dual [2]: -
Molecule: YPYILYPSVYTTNC (also: sidechain bridge or staple (positions not given here)) [OC8]

Kd ([1]; read-out: BLI KD, KDM7B PHD-finger): > 10000 nM
IC50 ([4]; read-out: IC50^AS, KDM7B PHD-finger): > 10000 nM
Molecule: CC(C)C[C@@H]1NC(=O)[C@H](Cc2ccc(O)cc2)NC(=O)[C@H](Cc2ccc(O)cc2)NC(=O)CSC[C@@H](C(N)=O)NC(=O)[C@H]([C@@H](C)O)NC(=O)[C@H](CCCNC(=N)N)NC(=O)[C@H](Cc2ccccc2)NC(=O)[C@H](CCCCN)NC(=O)[C@H](CO)NC(=O)[C@@H]2CCCN2C(=O)[C@H](Cc2ccc(O)cc2)NC(=O)[C@@H]2CCCN2C(=O)[C@H](Cc2c[nH]cn2)NC(=O)[C@H]([C@@H](C)O)NC1=O [V10K] (HELM PEPTIDE1{[O=C(C[*:3])[*:2]].Y.Y.L.T.H.P.Y.P.S.K.F.R.T.C.[am]}$PEPTIDE1,PEPTIDE1,1:R3-15:R3$$$V2.0; C-terminus assumed)

reduced potency relative to OC9 [4]: > 100 fold
Molecule: Ac-YYLTHPYPSVFRTC-NH2 (N-terminus and C-terminus assumed) [Linear]

Kd [1, 8]: > 1000 nM
BLI Screening, KDM7B PHD [1]: -
koff [2]: 0.0148 ± 0.0001 s⁻¹
kon [2]: 502000 ± 5000 M⁻¹ s⁻¹
Kd [2]: 29.5 nM
BLI Screening, KDM7B Dual [2]: +
Kd ([3]; 1:1 binding model): > 1000 nM
BLI Screening, KDM7B JmjC [3]: -
Kd ([6]; 50 mM HEPES, 100 mM NaCl, pH 7.4, 25 °C, 1:1 binding model): 163 nM
ITC ΔH, KDM7B Dual ([6]; 25 °C): -16.3 ± 1.5 kJ mol -1
ITC N, KDM7B Dual ([6]; stoichiometry): 1.37 ± 0.05
Molecule: CC[C@H](C)[C@@H]1NC(=O)[C@H](CC(C)C)NC(=O)[C@H](CCCNC(=N)N)NC(=O)[C@H](CCCNC(=N)N)NC(=O)[C@@H]2CCCN2C(=O)[C@H](Cc2ccc(O)cc2)NC(=O)[C@H](C(C)C)NC(=O)[C@H](CC(C)C)NC(=O)[C@H](CC(C)C)NC(=O)[C@H](C(C)C)NC(=O)[C@@H]2CCCN2C(=O)[C@H](Cc2ccc(O)cc2)NC(=O)CSC[C@@H](C(N)=O)NC1=O [OC3] (HELM PEPTIDE1{[O=C(C[*:3])[*:2]].Y.P.V.L.L.V.Y.P.R.R.L.I.C.[am]}$PEPTIDE1,PEPTIDE1,1:R3-14:R3$$$V2.0)
HDX-MS effect on deuterium uptake, KDM7B dual domain [7]: affected deuterium uptake in both domains
